Data taken from ChEMBL document CHEMBL4033705, “Screening for bioactive natural products from a 67-compound library of Glycyrrhiza inflata” (Bioorg Med Chem, 2017).

Tests used:
[1] = biological target: Mushroom tyrosinase (Agaricus bisporus) (UniProt O42713+Q00024+C7FF04+C7FF05); assay: Inhibition of mushroom tyrosinase at 10 uM using L-tyrosine as substrate incubated for 15 mins followed by substrate addition relative to control
[2] = tested on: RAW264.7; assay: Antiinflammatory activity in mouse RAW264.7 cells assessed as inhibition of LPS-induced NO production at 10 uM after 24 hrs by Griess reagent based assay relative to control; type: functional; settings: RAW264.7, 24 h
[3] = Growth inhibition of human LO2 cells at 10 uM after 24 hrs by MTS assay relative to control; type: cell-based, L02; settings: LO2 cells, read-out: GI
[4] = tested on: MCF7; assay: Growth inhibition of human MCF7 cells at 10 uM after 24 hrs by MTS assay relative to control; type: functional; settings: MCF7, 24 h, read-out: GI
[5] = biological target: T1, Tyrosine-protein phosphatase non-receptor type 1 (Homo sapiens) (UniProt P18031); assay: Inhibition of recombinant human PTP1B using p-nitrophenyl phosphate as substrate at 10 uM after 30 mins relative to control
T1 sequence (whole entry): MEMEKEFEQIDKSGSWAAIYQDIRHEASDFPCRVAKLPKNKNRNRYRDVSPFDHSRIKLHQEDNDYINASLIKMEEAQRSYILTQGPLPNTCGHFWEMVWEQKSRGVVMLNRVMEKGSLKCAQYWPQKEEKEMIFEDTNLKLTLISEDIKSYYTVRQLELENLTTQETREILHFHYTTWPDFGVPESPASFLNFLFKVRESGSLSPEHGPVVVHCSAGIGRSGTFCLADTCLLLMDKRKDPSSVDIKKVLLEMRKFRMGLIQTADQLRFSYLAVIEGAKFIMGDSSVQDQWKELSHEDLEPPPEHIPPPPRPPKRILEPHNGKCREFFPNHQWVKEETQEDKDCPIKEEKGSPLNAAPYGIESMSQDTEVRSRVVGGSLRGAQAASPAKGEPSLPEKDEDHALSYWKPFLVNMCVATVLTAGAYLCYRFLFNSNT

[6] = tested on: HepG2; assay: Growth inhibition of human HepG2 cells at 10 uM after 24 hrs by MTS assay relative to control; type: functional; settings: HepG2, 24 h, read-out: GI
[7] = tested on: SW480; assay: Growth inhibition of human SW480 cells at 10 uM after 24 hrs by MTS assay relative to control; type: functional; settings: SW480, 24 h, read-out: GI
[8] = species: Homo sapiens; assay: Inhibition of LPS-induced NF-kappaB transcription (unknown origin) expressed in human SW480 cells at 10 uM by luciferase reporter gene assay; type: cell-based
[9] = Growth inhibition of human HEK293T cells at 10 uM after 24 hrs by MTS assay relative to control; type: cell-based, HEK-293T; settings: HEK293T cells, read-out: GI
[10] = tested on: SW480; assay: Cytotoxicity against human SW480 cells assessed as reduction in cell viability after 24 hrs by MTS assay; type: functional, cell-based; settings: SW480, 24 h
[11] = biological target: T2, Tyrosine-protein phosphatase non-receptor type 1 (Homo sapiens, UniProt P18031); assay: Inhibition of recombinant human PTP1B using p-nitrophenyl phosphate as substrate after 30 mins
T2 sequence (P18031 whole entry): T1 sequence (whole entry)

[12] = Inhibition of LPS-induced NF-kappaB transcription (unknown origin) expressed in human SW480 cells by luciferase reporter gene assay; type: cell-based
[13] = tested on: MCF7; assay: Cytotoxicity against human MCF7 cells assessed as reduction in cell viability after 24 hrs by MTS assay; type: functional, cell-based; settings: MCF7, 24 h

inhibition [1] [%]	inhibition [5] [%]	IC50 [11] [µM]	IC50 [12] [µM]	SMILES	inhibition at 10 µM [2] [%]	inhibition at 24 h, 10 µM [3] [%]	inhibition of growth at 10 µM [4] [%]	inhibition of growth at 10 µM [6] [%]	inhibition of growth at 10 µM [7] [%]	inhibition [8] [%]	inhibition at 24 h, 10 µM [9] [%]	IC50 [10] [µM]	IC50 [13] [µM]
12	94	0.55	–	CC(C)=CCc1cc(-c2cc(=O)c3c(O)c(CC=C(C)C)c(O)cc3o2)ccc1O	5	33	25	34	86	0	3	6.35	–
12	48	–	6.67	C=CC(C)(C)c1cc(/C=C/C(=O)c2ccc(O)cc2)c(OC)c(O)c1O	50	5	31	22	36	66	11	–	–
0	47	–	–	CC(C)=CCc1c(O)c(CC=C(C)C)c2oc(-c3ccc(O)cc3)cc(=O)c2c1O	9	46	68	11	61	34	20	–	12.2
14	15	–	3.1	CC1(C)C=Cc2c(ccc(-c3cc4ccc(O)cc4o3)c2O)O1	22	4	0	5	31	73	11	–	–
1	33	–	7.27	CC1(C)C=Cc2cc(/C=C/C(=O)c3ccc(O)cc3O)ccc2O1	23	5	14	0	14	78	7	–	–
2	79	–	–	CC1(C)C=Cc2c(cc3occ(-c4ccc(O)cc4)c(=O)c3c2O)O1 [ALPINUMISOFLAVONE]	19	5	3	40	13	41	15	–	–
5	90	1.03	–	CC(C)=CCc1cc([C@@H]2CC(=O)c3c(cc(O)c(CC=C(C)C)c3O)O2)ccc1O [MACARANGAFLAVANONE B]	5	–	36	10	87	24	–	–	–
15	50	–	–	CC(C)=CCc1c(O)ccc2c1O[C@H](c1ccc3c(c1)C=CC(C)(C)O3)CC2=O	24	2	75	14	72	20	25	9.84	12.9
16	98	0.97	–	CC(C)=CCc1cc(/C=C/C(=O)c2ccc(O)cc2O)ccc1O [LICOAGROCHALCONE A]	16	3	2	2	12	25	2	–	–
1	18	–	13.9	C=CC(C)(C)c1cc(/C=C/C(=O)c2ccc(O)cc2)c(OC)cc1O [LICOAGROCHACONE A]	39	16	10	14	7	56	4	–	–
7	51	–	–	CC(C)=CCc1c(O)c(CC=C(C)C)c2occ(-c3ccc(O)cc3)c(=O)c2c1O	22	12	73	30	81	26	49	8.08	8.58
0	90	0.45	–	CC(C)=CCc1cc(/C=C/C(=O)c2ccc(O)c(CC=C(C)C)c2O)ccc1O [KANZONOL C]	19	34	79	27	96	6	21	6.1	9.15
14	73	–	–	CC(C)=CCc1c(O)ccc(C(=O)/C=C/c2ccc(O)cc2)c1O [ISOBAVACHALCONE]	0	–	16	39	20	0	–	–	–
5	7	–	–	CC(C)=CCc1c(O)ccc(-c2coc3cc(O)cc(O)c3c2=O)c1O	20	–	18	5	26	5	–	–	–
0	0	–	–	CC1(C)C=Cc2cc(-c3coc4cc(O)ccc4c3=O)cc(O)c2O1	22	–	0	14	5	23	–	–	–
0	3	–	–	CC1(C)[C@@H](OC=O)CC[C@]2(C)[C@H]3C(=O)C=C4[C@@H]5C[C@@](C)(C(=O)O)CC[C@]5(C)CC[C@@]4(C)[C@]3(C)CC[C@@H]12	2	–	17	13	3	0	–	–	–
2	92	4.5	–	CC(C)=CCc1cc(-c2coc3c(CC=C(C)C)c(O)cc(O)c3c2=O)cc(O)c1O	0	–	3	0	55	14	–	–	–
14	69	–	–	CC1(C)C=Cc2c(ccc(-c3coc4cc(O)cc(O)c4c3=O)c2O)O1 [LICOISOFLAVONE B]	10	–	14	13 to 14	13	4	–	–	–
5	1	–	–	CC1(C)C(=O)CC[C@]2(C)[C@H]3C(=O)C=C4[C@@H]5C[C@@](C)(C(=O)O)CC[C@]5(C)CC[C@@]4(C)[C@]3(C)[C@@H](O)C[C@@H]12	6	–	25	1	48	28	–	–	–
7	98	0.84	–	CC(C)=CCc1c(O)ccc([C@H]2COc3cc(O)c(CC=C(C)C)c(O)c3C2=O)c1O	14	0	44	25	2	37	4	–	–
15	18	–	–	COc1cc(O)c(-c2coc3cc(O)ccc3c2=O)c(OC)c1CC=C(C)C	14	–	33	0	0	3	–	–	–
12	2	–	–	O=C1C[C@@H](c2cc(O)cc(O)c2)Oc2cc(O)ccc21	15	–	13	0	4	1	–	–	–
5	20	–	–	COc1c(/C=C/C(=O)c2ccc(O)cc2)ccc(O)c1CC=C(C)C	1	–	26	22	25	9	–	–	–
